Usually EC50 stands for the concentration at which the effect is half-maximal.

The structures appear in SMILES notation. Read-outs that look alike come from different tables or passages of the source.

Format in all cases: binding
For one assay, the target named is T1, FBW7^ARG+pCycE (Homo sapiens, UniProt Q969H0, R505L).
T1 construct: GST (TEV site and flexible linker) (N, cleaved yes); made in house; host or cells: SF9 insect cells (baculovirus)
As to the kind of experiment: FBW7^ARG-cyclin E agonist ALPHAscreen (primary PRUN, confirmation CRUN1, dose-response DRUN). The note with it: for EC50 / Emax: DRUN dose-response; for Emax: relative to WT-FBW7+pCycE, read-out: FBW7 ACT Averaged Max % Response. In outline:
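ALPHAscreen agonist assay: His-tagged FBW7 R505L on Ni-chelate acceptor beads (25 nM FBW7, 25 nM biotinylated phospho-cyclin E peptide, 10 µg/ml beads), streptavidin donor beads, ALPHA signal read. Primary and confirmation runs at 26.1 μM; dose-response as 10-point 3-fold series to ~87 μM, in triplicate; activation relative to WT-FBW7+pCycE.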
A general note: Bead proximity is the source of the signal in Alpha formats.

The next assay addresses T2, FBW7^ARG (RLFBW7) alone (Homo sapiens, UniProt Q969H0, R505L).
T2 construct: GST (TEV site and flexible linker) (N, cleaved yes); made in house; host or cells: SF9 insect cells (baculovirus)
As to the kind of experiment: Counterscreen 1 ALPHAscreen with FBW7^ARG alone (CSRUN1/DCSRUN1). To be noted: dose-response counterscreen; for Emax: read-out: RLFBW7 ACT DCSRUN1 Averaged Max % Response. A digest of the protocol:
(§1)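 ALPHAscreen counterscreens, read on ENVISION, omitting either FBW7^ARG or the phosphorylated cyclin E peptide to flag general ALPHAscreen agonists. Compounds tested in triplicate as 10-point 3-fold dilutions up to approximately 87 μM. Activation expressed relative to WT-FBW7+pCycE, with 10% set as positive.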
(In general: The purpose of a counterscreen is to sort out artefacts and off-target activity.)

In the next assay the test system is pCycE alone. As to the kind of experiment: Counterscreen 2 ALPHAscreen with cyclin E phosphopeptide alone (CSRUN2/DCSRUN2). The note with it: for CyCEP ACT DCSRUN2 Averaged Max % Response: activation relative to WT-FBW7+pCycE, averaged maximum; for EC50: dose-response, triplicate, 10 point 3-fold dilutional series, read-out: CyCEP ACT DCSRUN2 Final EC50. A digest of the protocol: as §1

Setting [1] is: raw curve fit, read-out: FBW7 ACT EC50 Curve Fit Raw, Molar.
The mark [2] stands for this setting: triplicate, 10 point 3-fold dilution, max approx. 87 μM, read-out: FBW7 ACT Final EC50, Molar.
Where [3] appears, read: confirmation assay, triplicate, single concentration 26.1 μM, read-out: FBW7 ACT CRUN1 Avg % Response and Stdev.
Where [4] appears, read: primary screen, 1536-well, 26.1 μM, FBW7^ARG + pCycE degron peptide, high control wt-FBW7+pCycE, read-out: FBW7 ACT PRUN % Response.
[5] abbreviates: raw curve fit, read-out: RLFBW7 ACT DCSRUN1 EC50 Curve Fit Raw.
The mark [6] stands for this setting: read-out: RLFBW7 ACT DCSRUN1 Final EC50.

T2 sequence (Q969H0 64-707 R505L): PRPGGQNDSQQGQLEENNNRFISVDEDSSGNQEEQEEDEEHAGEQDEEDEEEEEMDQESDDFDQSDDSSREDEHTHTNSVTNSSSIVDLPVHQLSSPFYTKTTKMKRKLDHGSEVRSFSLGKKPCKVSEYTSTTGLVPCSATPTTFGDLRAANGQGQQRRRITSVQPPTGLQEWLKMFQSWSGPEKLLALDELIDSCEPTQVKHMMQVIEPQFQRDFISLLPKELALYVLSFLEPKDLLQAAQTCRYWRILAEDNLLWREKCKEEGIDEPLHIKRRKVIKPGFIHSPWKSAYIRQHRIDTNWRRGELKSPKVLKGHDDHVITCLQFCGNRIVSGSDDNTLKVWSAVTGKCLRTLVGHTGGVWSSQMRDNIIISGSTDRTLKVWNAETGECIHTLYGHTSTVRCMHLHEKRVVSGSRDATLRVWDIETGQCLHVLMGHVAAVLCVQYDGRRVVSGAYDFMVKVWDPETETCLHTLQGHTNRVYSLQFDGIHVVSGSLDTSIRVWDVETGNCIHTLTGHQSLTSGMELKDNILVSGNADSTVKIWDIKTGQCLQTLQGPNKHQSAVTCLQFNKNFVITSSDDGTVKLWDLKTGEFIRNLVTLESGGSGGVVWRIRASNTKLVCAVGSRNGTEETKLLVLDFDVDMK
T2 sequence (P63208 2-163 partner): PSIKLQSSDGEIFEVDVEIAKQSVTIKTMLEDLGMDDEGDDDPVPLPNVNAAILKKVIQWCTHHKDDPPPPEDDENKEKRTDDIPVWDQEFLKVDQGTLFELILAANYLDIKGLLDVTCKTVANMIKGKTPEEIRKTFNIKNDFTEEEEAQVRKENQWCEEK
T1 sequence (Q969H0 64-707 R505L): as the sequence (Q969H0 64-707 R505L) above
T1 sequence (P63208 2-163 partner): as the sequence (P63208 2-163 partner) above

Turning to `CC(NC(=O)c1cnc2ccccn12)c1ccc(F)cc1` (stereo not drawn) [SR-01000378746-1], the EC50 at FBW7^ARG+pCycE (setting [1]) was 0.0903 µM; at FBW7^ARG+pCycE (setting [2]), above 65.3 µM; at FBW7^ARG (RLFBW7) alone (setting [5]), 0.011 µM; at FBW7^ARG (RLFBW7) alone (setting [6]), above 65.3 µM; in the assay on pCycE alone, above 65.3 µM. Further, the Emax amounted to 6.66% at FBW7^ARG+pCycE and 1.12% on FBW7^ARG (RLFBW7) alone. Further, the results for the activation at 26.1 µM on FBW7^ARG+pCycE (setting [3]) and on FBW7^ARG+pCycE (setting [4]) were 3.47 ± 0.47% and 2.82%, respectively. The “CyCEP ACT DCSRUN2 Averaged Max % Response” value in the assay on pCycE alone is listed as 0.23%.
Consider `O=C(c1ccco1)N1CCN(c2ncc(-c3ccccc3CO)n3ccnc23)CC1` [SR-01000381408-1], for which the concentration for a half-maximal effect (EC50) on FBW7^ARG+pCycE (setting [1]) was 20.3 µM; on FBW7^ARG+pCycE (setting [2]), above 65.3 µM; at FBW7^ARG (RLFBW7) alone (setting [5]), 0.229 µM; on FBW7^ARG (RLFBW7) alone (setting [6]), above 65.3 µM; in the assay with pCycE alone, above 65.3 µM. For the same molecule, the Emax at FBW7^ARG+pCycE worked out at 18.1%; on FBW7^ARG (RLFBW7) alone, 0.83%. The activation at 26.1 µM on FBW7^ARG+pCycE (setting [3]) came to 1.92 ± 0.3%; at FBW7^ARG+pCycE (setting [4]) it was 6.66%. For the same molecule, in the assay with pCycE alone, the “CyCEP ACT DCSRUN2 Averaged Max % Response” value is reported as 0.18%.
Consider `CC(C)[C@@H](CO)Nc1ccc2ncc(-c3cccc(Cl)c3)n2n1` [SR-01000383396-1], for which the EC50 was 0.127 µM at FBW7^ARG+pCycE (setting [1]), above 65.3 µM on FBW7^ARG+pCycE (setting [2]), above 65.3 µM at FBW7^ARG (RLFBW7) alone (setting [6]) and above 65.3 µM in the assay on pCycE alone. Besides, the Emax on FBW7^ARG+pCycE was found to be 6.14%; on FBW7^ARG (RLFBW7) alone, 0.49%. The activation at 26.1 µM on FBW7^ARG+pCycE (setting [3]) worked out at 2.27 ± 0.17%; on FBW7^ARG+pCycE (setting [4]), 2.03%. Also, the “CyCEP ACT DCSRUN2 Averaged Max % Response” value with pCycE alone is reported as 0.27%.
Consider `COc1ccc(OC)c(/C=C2/N=C(c3cccc([N+](=O)[O-])c3)OC2=O)c1` [SR-01000414795-1], for which the EC50 is 0.0017 µM on FBW7^ARG+pCycE (setting [1]), above 59.3 µM at FBW7^ARG+pCycE (setting [2]), above 59.3 µM on FBW7^ARG (RLFBW7) alone (setting [6]) and above 59.3 µM in the assay on pCycE alone. The Emax on FBW7^ARG+pCycE is 7.11%; at FBW7^ARG (RLFBW7) alone, -0.422%. Moreover, the activation at 26.1 µM at FBW7^ARG+pCycE (setting [3]) amounted to 2.95 ± 3.6%; on FBW7^ARG+pCycE (setting [4]), 1.88%. For the same molecule, the “CyCEP ACT DCSRUN2 Averaged Max % Response” value in the assay on pCycE alone is listed as 0.02%.
As for `CC1=C(C(=O)OCCc2ccccc2)C(c2ccc(Cl)cc2Cl)C2=C(CC(C)(C)CC2=O)N1` (stereo not drawn) [SR-01000419178-1], the EC50 on FBW7^ARG+pCycE (setting [1]) is 16.4 µM; on FBW7^ARG+pCycE (setting [2]), above 45.8 µM; on FBW7^ARG (RLFBW7) alone (setting [5]) it was 0.0785 µM; at FBW7^ARG (RLFBW7) alone (setting [6]), above 45.8 µM; in the assay with pCycE alone it was above 45.8 µM. The Emax on FBW7^ARG+pCycE amounted to 9.01%; at FBW7^ARG (RLFBW7) alone, 3.8%. For the same molecule, the figures for the activation at 26.1 µM on FBW7^ARG+pCycE (setting [3]) and at FBW7^ARG+pCycE (setting [4]) were 4.54 ± 0.53% and 2.09%, respectively. Besides, the “CyCEP ACT DCSRUN2 Averaged Max % Response” value with pCycE alone was determined as 0.09%.
Turning to `CC1=C(C(=O)OC2CCCCC2)C(c2ccc(F)cc2)C2=C(CC(c3ccccc3)CC2=O)N1` (stereo not drawn) [SR-01000420805-1], the EC50 was 18.2 µM on FBW7^ARG+pCycE (setting [1]); above 50.8 µM at FBW7^ARG+pCycE (setting [2]); 20.2 µM on FBW7^ARG (RLFBW7) alone (setting [5]); above 50.8 µM on FBW7^ARG (RLFBW7) alone (setting [6]); above 50.8 µM in the assay with pCycE alone. Further, the Emax came to 10% on FBW7^ARG+pCycE and 3.33% on FBW7^ARG (RLFBW7) alone. Further, the activation at 26.1 µM at FBW7^ARG+pCycE (setting [3]) amounted to 6.77 ± 1.17%; at FBW7^ARG+pCycE (setting [4]), 1.92%. Moreover, the “CyCEP ACT DCSRUN2 Averaged Max % Response” value in the assay on pCycE alone is 0.22%.
Regarding `Cc1cc(OCC(=O)Nc2ccc3oc(-c4ccccc4Br)nc3c2)cc(C)c1Cl` [SR-01000421466-1], the EC50 is 0.0412 µM at FBW7^ARG+pCycE (setting [1]), above 43.2 µM on FBW7^ARG+pCycE (setting [2]), above 43.2 µM at FBW7^ARG (RLFBW7) alone (setting [6]) and above 43.2 µM in the assay on pCycE alone. Also, the Emax on FBW7^ARG+pCycE was 8.15%; at FBW7^ARG (RLFBW7) alone it was 0.32%. The activation at 26.1 µM on FBW7^ARG+pCycE (setting [3]) stood at 3.2 ± 0.75%; on FBW7^ARG+pCycE (setting [4]), 2.01%. Further, in the assay on pCycE alone, the “CyCEP ACT DCSRUN2 Averaged Max % Response” value turned out to be 0.02%.
With `Cc1c(NC(=O)/C(=C\c2ccccc2)NC(=O)c2ccccc2)c(=O)n(-c2ccccc2)n1C` [SR-01000422225-1], the EC50 on FBW7^ARG+pCycE (setting [1]) is 0.0401 µM; on FBW7^ARG+pCycE (setting [2]) it was above 56.7 µM; on FBW7^ARG (RLFBW7) alone (setting [5]), 0.619 µM; on FBW7^ARG (RLFBW7) alone (setting [6]), above 56.7 µM; with pCycE alone, above 56.7 µM. The Emax at FBW7^ARG+pCycE was determined as 6.91%; at FBW7^ARG (RLFBW7) alone, 0.11%. The figures for the activation at 26.1 µM at FBW7^ARG+pCycE (setting [3]) and on FBW7^ARG+pCycE (setting [4]) were 4.37 ± 0.72% and 1.87%, respectively. Moreover, the “CyCEP ACT DCSRUN2 Averaged Max % Response” value with pCycE alone turned out to be 0.18%.
Regarding `COc1ccc(C2CC(=O)C3=C(C2)NC(C)=C(C(=O)OC(C)C)C3c2ccccc2OC(C)C)cc1` (stereo not drawn) [SR-01000422384-1], the EC50 on FBW7^ARG+pCycE (setting [1]) is 14.3 µM; on FBW7^ARG+pCycE (setting [2]) it was above 42.9 µM; on FBW7^ARG (RLFBW7) alone (setting [5]) it was 14.5 µM; on FBW7^ARG (RLFBW7) alone (setting [6]), above 42.9 µM; with pCycE alone, above 42.9 µM. For the same molecule, the Emax on FBW7^ARG+pCycE was 9.7%; at FBW7^ARG (RLFBW7) alone it was 1.86%. Moreover, the activation at 26.1 µM at FBW7^ARG+pCycE (setting [3]) is 6.29 ± 0.67%; on FBW7^ARG+pCycE (setting [4]) it was 2.42%. For the same molecule, the “CyCEP ACT DCSRUN2 Averaged Max % Response” value in the assay with pCycE alone is given as 0.09%.
